{"source": "ChEMBL document CHEMBL1201862", "about": "“PubChem BioAssay data set” (2004)", "key": {"[1]": {"experiment": "Mcl1-dependent cancer cell viability – HMC-1-8 cells, luminescence, dry powder, selectivity assay for A1 inhibitor project, dose response (AID 504415)", "assay_type": "functional, cell-based", "conditions": "Homo sapiens"}, "[2]": {"experiment": "Luminescence Cell-Based Dose Retest to Confirm Inhibitors of Cancer Stem Cells. [Related pubchem assays (depositor defined):AID2717, AID2721]", "assay_type": "functional", "conditions": "Homo sapiens"}, "[3]": {"experiment": "viability loss in HepG2 hepatoma cells – cell-based, ATP luminescence, cherry-pick, activator set 2, cytotoxicity control, dose response (AID 1053143)", "assay_type": "functional"}, "[4]": {"target": "Neurotensin receptor type 1 (Homo sapiens, UniProt P30989)", "sequence (P30989 whole entry)": "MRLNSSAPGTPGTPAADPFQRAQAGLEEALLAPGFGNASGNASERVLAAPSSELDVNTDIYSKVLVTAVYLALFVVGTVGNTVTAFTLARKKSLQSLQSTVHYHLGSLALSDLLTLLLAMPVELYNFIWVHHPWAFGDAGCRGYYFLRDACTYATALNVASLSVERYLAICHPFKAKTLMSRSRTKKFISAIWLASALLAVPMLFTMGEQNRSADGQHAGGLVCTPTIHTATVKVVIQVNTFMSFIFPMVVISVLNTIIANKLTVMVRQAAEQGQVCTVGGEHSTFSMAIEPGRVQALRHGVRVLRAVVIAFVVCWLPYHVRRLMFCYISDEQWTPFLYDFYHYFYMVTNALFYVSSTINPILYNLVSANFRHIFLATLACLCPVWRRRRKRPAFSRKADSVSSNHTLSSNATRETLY", "assay_type": "functional"}, "[5]": {"target": "Induced myeloid leukemia cell differentiation protein Mcl-1 (Homo sapiens, UniProt Q07820)", "sequence (Q07820 whole entry)": "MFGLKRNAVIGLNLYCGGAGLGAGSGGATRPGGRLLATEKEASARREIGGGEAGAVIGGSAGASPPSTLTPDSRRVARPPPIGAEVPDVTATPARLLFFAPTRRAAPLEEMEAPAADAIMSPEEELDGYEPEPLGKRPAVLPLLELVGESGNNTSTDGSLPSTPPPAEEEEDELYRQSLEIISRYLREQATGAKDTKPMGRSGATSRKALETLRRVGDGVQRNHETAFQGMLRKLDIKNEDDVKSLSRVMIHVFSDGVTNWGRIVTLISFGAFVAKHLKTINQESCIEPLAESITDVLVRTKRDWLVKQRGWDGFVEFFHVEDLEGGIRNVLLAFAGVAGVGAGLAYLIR", "assay_type": "functional"}, "[6]": {"target": "Genome polyprotein (Hepatitis C virus, UniProt Q2Q167)", "sequence (Q2Q167 whole entry)": "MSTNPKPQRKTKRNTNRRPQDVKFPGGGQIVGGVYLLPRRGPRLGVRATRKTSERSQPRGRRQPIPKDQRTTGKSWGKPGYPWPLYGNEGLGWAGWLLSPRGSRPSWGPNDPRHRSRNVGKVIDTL", "experiment": "disruption of hepatitis C core self-association – biochemical, TR-FRET, dose response (AID 2159);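 note: blocks dimerization of HCV core protein measured by TR-FRET between tagged core106 pairs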", "parameters": "species or system Hepacivirus hominis"}, "[7]": {"target": "26S proteasome non-ATPase regulatory subunit 14 (Homo sapiens, UniProt O00487)", "sequence (O00487 whole entry)": "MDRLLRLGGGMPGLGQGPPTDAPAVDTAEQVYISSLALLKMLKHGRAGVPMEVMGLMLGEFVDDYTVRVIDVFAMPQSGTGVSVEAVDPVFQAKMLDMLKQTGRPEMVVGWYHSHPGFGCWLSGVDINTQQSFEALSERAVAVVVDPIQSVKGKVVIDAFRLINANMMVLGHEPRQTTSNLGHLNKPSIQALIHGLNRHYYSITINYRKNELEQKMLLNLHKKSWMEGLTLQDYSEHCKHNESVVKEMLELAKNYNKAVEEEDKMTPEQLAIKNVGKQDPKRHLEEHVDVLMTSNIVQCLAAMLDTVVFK", "experiment": "inhibition of proteasome subunit RPN11 – biochemical, fluorescence polarization, uHTS hits, confirmation (AID 602368)", "assay_type": "functional"}, "[8]": {"experiment": "protection from phage-mediated lysis, alamar blue read-out – E. coli UTI89, K1F phage, bacterial capsule biogenesis inhibitors (AID 488966)", "assay_type": "functional"}, "[9]": {"target": "Large T antigen (Simian virus 40, UniProt P03070)", "sequence (P03070 whole entry)": "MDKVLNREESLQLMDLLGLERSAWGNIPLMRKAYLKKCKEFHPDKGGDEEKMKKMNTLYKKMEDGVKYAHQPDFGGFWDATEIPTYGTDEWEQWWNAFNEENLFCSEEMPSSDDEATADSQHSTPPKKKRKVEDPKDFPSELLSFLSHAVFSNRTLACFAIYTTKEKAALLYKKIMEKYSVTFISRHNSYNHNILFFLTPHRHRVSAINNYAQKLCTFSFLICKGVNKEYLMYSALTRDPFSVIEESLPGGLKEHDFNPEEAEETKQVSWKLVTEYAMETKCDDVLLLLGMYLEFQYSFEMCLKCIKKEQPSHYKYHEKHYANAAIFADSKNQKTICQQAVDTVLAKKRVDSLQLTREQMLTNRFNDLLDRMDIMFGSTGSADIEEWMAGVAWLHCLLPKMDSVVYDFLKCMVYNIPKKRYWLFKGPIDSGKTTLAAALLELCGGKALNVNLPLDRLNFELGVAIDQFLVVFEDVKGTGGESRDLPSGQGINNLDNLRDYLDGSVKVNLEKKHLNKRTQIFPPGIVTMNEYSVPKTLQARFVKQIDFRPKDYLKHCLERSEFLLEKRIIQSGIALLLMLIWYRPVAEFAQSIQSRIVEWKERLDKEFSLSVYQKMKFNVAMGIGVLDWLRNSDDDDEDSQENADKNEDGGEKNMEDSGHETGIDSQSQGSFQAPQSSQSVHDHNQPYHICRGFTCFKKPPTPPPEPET", "assay_type": "functional, Betapolyomavirus macacae"}, "[10]": {"target": "72 kDa type IV collagenase (Homo sapiens, UniProt P08253)", "sequence (P08253 whole entry)": "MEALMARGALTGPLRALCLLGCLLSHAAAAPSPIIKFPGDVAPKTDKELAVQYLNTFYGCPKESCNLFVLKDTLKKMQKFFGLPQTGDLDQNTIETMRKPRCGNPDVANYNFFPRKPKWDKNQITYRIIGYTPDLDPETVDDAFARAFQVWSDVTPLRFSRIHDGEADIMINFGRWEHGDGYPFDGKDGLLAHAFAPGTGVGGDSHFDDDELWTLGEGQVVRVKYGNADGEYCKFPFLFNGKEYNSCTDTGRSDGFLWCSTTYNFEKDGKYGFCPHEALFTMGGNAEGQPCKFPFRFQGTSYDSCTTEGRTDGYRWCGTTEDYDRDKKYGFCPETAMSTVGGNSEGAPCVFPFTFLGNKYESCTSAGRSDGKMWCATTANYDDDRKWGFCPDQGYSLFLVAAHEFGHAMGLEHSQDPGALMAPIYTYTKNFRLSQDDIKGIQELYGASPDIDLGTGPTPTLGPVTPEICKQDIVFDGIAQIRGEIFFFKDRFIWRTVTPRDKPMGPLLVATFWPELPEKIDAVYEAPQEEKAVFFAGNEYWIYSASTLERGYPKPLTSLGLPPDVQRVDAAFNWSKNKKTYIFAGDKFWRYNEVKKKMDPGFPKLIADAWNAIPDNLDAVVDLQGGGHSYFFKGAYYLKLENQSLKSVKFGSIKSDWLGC", "experiment": "Dose Response validation of uHTS RPN11 inhibitor hits using a MMP-2 Fluorescence assay.", "assay_type": "functional"}, "[11]": {"target": "Prothrombin (Bos taurus, UniProt P00735)", "experiment": "thrombin protease inhibitors – biochemical, fluorescence polarization, uHTS hits, dose response (AID 602369)", "assay_type": "functional"}, "[12]": {"experiment": "DRD fibroblast viability loss – cell-based, non-viral oncogenic, luminescence, dose response (AID 1934)", "assay_type": "functional", "conditions": "Homo sapiens"}, "[13]": {"experiment": "alpha-synuclein stem-loop luciferase translation blockers – H4 neuroglioma cells, luminescence, confirmation (AID 1988)", "assay_type": "functional, cell-based"}, "[14]": {"test_system": "BJ", "experiment": "cells", "assay_type": "functional, cell-based", "conditions": "Homo sapiens"}, "[15]": {"target": "T1, High affinity choline transporter 1 (Homo sapiens, UniProt Q9GZV3)", "T1 sequence (Q9GZV3 whole entry)": "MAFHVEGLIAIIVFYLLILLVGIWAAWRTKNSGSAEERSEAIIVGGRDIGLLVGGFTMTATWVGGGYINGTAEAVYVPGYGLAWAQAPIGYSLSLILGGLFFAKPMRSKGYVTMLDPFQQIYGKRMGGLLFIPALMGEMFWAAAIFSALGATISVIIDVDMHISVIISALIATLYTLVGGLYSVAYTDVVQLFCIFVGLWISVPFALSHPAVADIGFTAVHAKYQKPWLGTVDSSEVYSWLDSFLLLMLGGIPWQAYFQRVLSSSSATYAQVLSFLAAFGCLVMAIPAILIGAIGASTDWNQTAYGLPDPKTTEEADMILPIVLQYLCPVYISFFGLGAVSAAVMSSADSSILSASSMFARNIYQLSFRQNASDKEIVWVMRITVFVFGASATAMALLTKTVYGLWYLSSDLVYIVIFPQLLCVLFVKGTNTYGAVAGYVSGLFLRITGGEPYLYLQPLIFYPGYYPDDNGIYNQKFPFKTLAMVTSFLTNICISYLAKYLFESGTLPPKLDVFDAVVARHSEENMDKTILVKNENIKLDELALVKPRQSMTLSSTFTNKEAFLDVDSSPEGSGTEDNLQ", "experiment": "human choline transporter potentiators, potency – cell-based, 10-point CRC, membrane potential dye, dose response (AID 602376)", "assay_type": "functional"}, "[16]": {"experiment": "activation of miR-122 Renilla sensor silencing – cell-based, Huh7 psiCHECK-miR122, Renilla luciferase, cherry-picked, dose response (AID 651956);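 note: huh7 hepatoma cells stably carrying a psiCHECK-2 miR-122 sensor plasmid; renilla luciferase signal reporting endogenous miR-122 activity after 48 h compound exposure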", "assay_type": "functional"}, "[17]": {"experiment": "general mammalian cell viability loss – inhibitor set, cherry-pick, set 2, cytotoxicity control for miR-122 modulator project, dose response (AID 720697)", "assay_type": "functional, cell-based"}, "[18]": {"test_system": "INS1", "experiment": "INS-1E survival protection against cytokine death – cell-based, luminescence, retest, dose response (AID 449756);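 note: cell death triggered by IL-1 beta plus TNF-alpha plus IFN-gamma mixture; protective hits raise ATP signal compared with cytokine alone wells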", "assay_type": "functional", "conditions": "Rattus norvegicus"}, "[19]": {"experiment": "Luminescence Cell-Based Dose Response HTS to Identify Inhibitors of 5'UTR Stem-Loop Driven Prion Protein mRNA Translation in H4 Neuroglioblastoma Cells. [Related pubchem assays: 1827 (Project Summary), 1813 (Primary HTS)]", "assay_type": "functional"}, "[20]": {"test_system": "BJ", "experiment": "BJ-TERT-LT-ST fibroblast viability loss – cell-based, RAS-independent, luminescence, dose response (AID 1935);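 note: BJ fibroblasts immortalized with TERT plus LT and ST oncogenes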", "assay_type": "functional", "conditions": "Homo sapiens"}, "[21]": {"experiment": "Luminescence-based dose response cell-based high throughput screening assay for cytotoxic compounds using the IEC-6 intestinal epithelial cell line. [Related pubchem assays: 1858 (Summary AID.), 1825 (Counterscreen.), 1907 (Confirmation screen.)]", "assay_type": "functional"}, "[22]": {"experiment": "loss of viability in HepG2 cells – cell-based, CellTiter-Glo, cherry-picked, cytotoxicity control for Shn3 inhibitor project, dose response (AID 624134)", "assay_type": "functional"}, "[23]": {"experiment": "general mammalian cell viability loss – activator set, cherry-pick, cytotoxicity control for miR-122 modulator project, dose response (AID 720690);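 note: HEK293T human cells scored for general mammalian cytotoxicity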", "assay_type": "functional, cell-based"}, "[24]": {"experiment": "reduction of Shn3 3'UTR-driven luciferase in osteoblasts – cell-based, Clone20 osteoblasts, firefly luciferase, cherry-picked, dose response (AID 624132)", "assay_type": "functional"}, "[25]": {"test_system": "BJ", "experiment": "growth inhibition of engineered Ras-driven BJ cells – cell-based, alamar blue fluorescence, cherrypicked samples, dose response (AID 2631)", "assay_type": "functional", "conditions": "Homo sapiens"}, "[26]": {"experiment": "reduced cellular PGC1a acetyl-lysine signal – cell-based, cherry-picked samples, dose response (AID 720514);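 note: potency may reflect raised or lowered acetylation signal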", "assay_type": "functional"}, "[27]": {"experiment": "non-specific 3'UTR reporter inhibition in Clone20-Shn3RL – cell-based, Renilla luciferase, cherry-picked, counter-screen for Shn3 inhibitor project, dose response (AID 624133)", "assay_type": "functional"}, "[28]": {"experiment": "luciferase reporter signal suppression in cells – H4 neuroglioma cells, luminescence, dose response (AID 1990)", "assay_type": "functional, cell-based"}, "[29]": {"test_system": "BJ", "experiment": "BJ-TERT fibroblast viability loss – cell-based, RAS-independent, luminescence, dose response (AID 1933)", "assay_type": "functional", "conditions": "Homo sapiens"}}, "note": "Active and inactive are the calls of the source."}
{"smiles": "Cc1ccc(Sc2c([N+](=O)[O-])c(=O)n(C)c3ccccc23)cc1", "values": [{"measurement": "AC50", "setting": "[1]", "result": "19.3 µM (active)"}, {"measurement": "AC50", "setting": "[2]", "result": "3.18 µM (active)"}, {"measurement": "AC50", "setting": "[3]", "result": "26 µM (active)"}, {"measurement": "EC50", "setting": "[4]", "result": "26 µM (inactive)"}]}
{"smiles": "CS(=O)(=O)c1ccc2c(c1)SC1=NC(=O)/C(=C/c3ccco3)C(=N)N12", "values": [{"measurement": "IC50", "setting": "[5]", "result": "2.84 µM (active)"}, {"measurement": "IC50", "setting": "[6]", "result": "> 49.8 µM (not active)"}, {"measurement": "IC50", "setting": "[7]", "result": "14.4 µM (active)"}, {"measurement": "IC50", "setting": "[8]", "result": "> 150 µM (active)"}, {"measurement": "IC50", "setting": "[9]", "result": "> 100 µM (active)"}, {"measurement": "IC50", "setting": "[10]", "result": "21.2 µM (active)"}, {"measurement": "IC50", "setting": "[11]", "result": "21.6 µM (active)"}]}
{"smiles": "Cc1ccccc1OCC(O)CNC1CCC(NCC(O)COc2ccccc2C)CC1", "note": "(centres undefined)", "values": [{"measurement": "EC50", "setting": "[12]", "result": "3.77 µM (active)"}, {"measurement": "EC50", "setting": "[13]", "result": "8.49 µM (active)"}, {"measurement": "EC50", "setting": "[14]", "result": "5.55 µM (active)"}, {"measurement": "EC50", "setting": "[15]", "result": "19.3 µM (active)"}, {"measurement": "AC50", "setting": "[16]", "result": "10.4 µM (active)"}, {"measurement": "AC50", "setting": "[17]", "result": "6.41 µM (active)"}, {"measurement": "AC50", "setting": "[18]", "result": "5.79 µM (active)"}, {"measurement": "EC50", "setting": "[19]", "result": "8.66 µM (active)"}, {"measurement": "EC50", "setting": "[20]", "result": "2.8 µM (inconclusive)"}, {"measurement": "IC50", "setting": "[21]", "result": "2.61 µM (active)"}, {"measurement": "AC50", "setting": "[22]", "result": "1.89 µM (active)"}, {"measurement": "AC50", "setting": "[23]", "result": "9.9 µM (active)"}, {"measurement": "AC50", "setting": "[24]", "result": "4.5 µM (active)"}, {"measurement": "EC50", "setting": "[25]", "result": "0.582 µM (inconclusive)"}, {"measurement": "AC50", "setting": "[26]", "result": "6.68 µM (active)"}, {"measurement": "AC50", "setting": "[27]", "result": "11.8 µM (active)"}, {"measurement": "EC50", "setting": "[28]", "result": "> 120 µM (not active)"}, {"measurement": "EC50", "setting": "[29]", "result": "2.62 µM (inconclusive)"}]}
